Measurements from patent US6664231B1, “Anti-fungal peptides” (priority 1993, dated 2003).

What was measured:
[1] = test system: C. albicans (SLU-1 strain); test: Survival of mice systemically infected with Candida albicans; type: in vivo, mouse
Description: Groups of 15 male DBA/2J mice at age 6-8 weeks (Jackson Laboratory, Bar Harbor, Me.) were inoculated with 1.24×10^5 C. albicans (SLU-1 strain as described in Example 2) by intravenous injection into the tail vein. Cells were prepared for animal injection as follows. A single colony was selected and used to inoculate a 5 mL tube of Sabouraud dextrose broth. Incubation was at 30° C. with shaking to allow aeration for a period of 15-18 hours. Four mL of the overnight culture were added to 100 mL of fresh Sabouraud dextrose broth (1:25 dilution) and incubated for 4 hours. The 100 mL culture was pelleted at 1,500×g for 5 minutes. Cells were washed twice by adding 20 mL D-PBS, vortexing and re-centrifuging. Cells were collected in one tube and a sample is diluted 1:10 to be measured by OD570 (1 OD unit=3×10^7 CFU/mL). The cells were diluted to the desired dose in D-PBS and kept at 4° C. until used. Doses were confirmed by performing serial ten-fold dilutions and plating 50 μl per dilution on Sabouraud dextrose agar. Colonies were counted the following day after overnight incubation at 37° C. A […] culture yielded approximately 1×10^9 CFU/mL.
Immediately after fungal challenge, the mice were intravenously injected via the tail vein with a 0.1 mL volume of 10 mg/kg XMP.36, 5 mg/kg XMP.97, 10 mg/kg XMP.102, 1 mg/kg amphotericin B (Sigma, St. Louis, Mo.), or phosphate buffered saline (PBS) as a control. Treatment with the same amounts of peptides, amphotericin B or PBS was repeated at Day 2 and Day 4 (except that the second dose of XMP.36 was given at a dose of 5 mg/kg). Mice were monitored twice daily for mortality until termination of the study at Day 28. […] In FIG. 4, the symbol “X” represents survival after treatment with amphotericin B; open squares, treatment with XMP.97; open circles, treatment with XMP.36; open diamonds, treatment with XMP.102; and open triangles, treatment with buffer. Statistical significance was evaluated using the Lifetest Survival Curve analysis. [Lawless, Statistical Models and Methods for Lifetime Data, John Wiley & Sons, New York (1982).] The duration and almost linear decline in survival is analogous to human opportunistic candidiasis.
In additional 3-dose studies, groups of 15 mice were injected with a fungal challenge of 0.5×10^5 Candida cells, prepared for injection as described above, followed by treatment at Day 0, Day 2 and Day 5 with a 0.1 mL volume of 10 mg/kg XMP.127, 5 mg/kg XMP.13, 5 mg/kg XMP.37, 1 mg/kg amphotericin B, or PBS as a control. […] In FIG. 5, the symbol “X” represents survival after treatment with amphotericin B; open circles, treatment with XMP.127; filled triangles, treatment with buffer; open squares, treatment with XMP.37; open triangles, treatment with XMP.13.
Further studies to determine the effectiveness of anti-fungal peptides were performed at an increased dosing regimen (6 doses rather than 3 doses as described above). Groups of 9 week-old male DBA/2J mice were inoculated with concentrations of 2.7×10^5 Candida cells (prepared as described above) by intravenous injection in the tail vein. Immediately after fungal challenge, the mice were treated with a 0.1 mL volume of 10 mg/kg XMP.284, 1 mg/kg amphotericin B or PBS as a control at Day 0, Day 2, Day 4, Day 7, Day 9 and Day 11. All amphotericin B-treated animals were protected.
Additional 6-dose experiments were conducted as described above, using inocula of 0.5-3.0×10^5 Candida cells and using 0.01, 0.05, 0.1, 0.5, 1.0 or 5.0 mg/kg doses of peptide.

[2] = test system: Candida albicans SLU-2G amphotericin B-resistant strain; test: Radial diffusion assay (Example 3), amphotericin B-resistant strain; type: cell-based; conditions: FIG. 2B
Description: Domain III derived peptides were tested for their fungicidal activity on amphotericin resistant Candida. Resistant colonies of Candida were isolated using a gradient plate technique. A slanted Sabouraud dextrose agar plate was poured and allowed to harden. The plate was made level and additional agar supplemented with nystatin (Sigma, St. Louis, Mo., cat. no. N-3503) at a concentration of 10 μg/mL was poured. Cells from the CA-1 colony of Candida albicans SLU-1 strain described in Example 2 (10^7 cells in a volume of 100 μL) were spread over the plate and incubated at […] overnight.
For the radial diffusion assays, Candida albicans SLU-1 were grown as described above and SLU-2G were grown overnight in Sabouraud dextrose broth supplemented with 10 μg/mL amphotericin B and 5 μg/mL ceftriaxone at 37° C. Cultures were diluted 1:25 into fresh, unsupplemented broth and allowed to grow for 5 hours at 37° C. Cells were pelleted at 1,500×g for 5 minutes at 4° C. Supernatant was decanted and replaced with 5 mL of 10 mM phosphate buffer, pH 7.4. After centrifugation the cell pellets were resuspended with 5 mL phosphate buffer for an OD570 determination.
Cells were added to 10 mL of molten, cooled (˜45° C.) underlayer agarose to a concentration of 1×10^6/mL and the suspension was poured into a level square petri plate with gentle rocking to allow even distribution and solidification to a uniform thickness of about 1 mm. Wells were cut into the hardened agarose with a sterilize, 3 mm diameter punch with vacuum.
Peptides were two-fold serially diluted with DPBS from a starting concentration of approximately 1 mg/mL. […] Five μL were added per well and allowed to diffuse at 37° C. for 1.5-2.0 hours. Then 10 mL of molten overlayer agarose were added and the plates were incubated inverted at 37° C. overnight. Plates were stained with a dilute Coomassie solution, inhibition zones were measured with calipers and net areas were calculated, then converted to pmol values by PROBIT analysis.

[3] = 2.7×10^5 Candida cells, 10 mg/kg, 6 doses (Day 0, 2, 4, 7, 9, 11), FIG. 6
[4] = 0.5×10^5 Candida cells, doses Day 0, 2, 5, 10 mg/kg XMP.127, 5 mg/kg XMP.13, 5 mg/kg XMP.37, 1 mg/kg amphotericin B, FIG. 5

Compound	survival at Day 6 [1, 3]	survival at Day 24 [1, 3]	pmol for a 30 mm^2 zone of inhibition against SLU-2G [2]	mice survived until Day 28 [1, 4]	mice survived until Day 28 ([1]; 1.24×10^5 C. albicans i.v., 3 doses i.v. (Day 0, 2, 4), 10 mg/kg XMP.36, 5 mg/kg XMP.97, 10 mg/kg XMP.102, 1 mg/kg amphotericin B, FIG. 4)	protection of animals (6-dose study) ([1]; 2.7×10^5 Candida cells, 1 mg/kg, 6 doses)
H-SKVKWLIQLFHKK-NH2 [XMP.284]	87%	33%				
H-KSKVGWAIQLFHKK-NH2 [XMP.37]			75 pmol	33%		
H-KSKVGWLIQLFHKK-NH2 [XMP.13]			129 pmol	20%		
C[C@@H]1[C@H](O)[C@@H](C)/C=C/C=C/C=C/C=C/C=C/C=C/C=C/[C@H](O[C@@H]2O[C@H](C)[C@@H](O)[C@H](N)[C@@H]2O)C[C@@H]2O[C@](O)(C[C@@H](O)C[C@@H](O)[C@H](O)CC[C@@H](O)C[C@@H](O)CC(=O)O[C@H]1C)C[C@H](O)[C@H]2C(=O)O [Amphotericin B, amphotericin B, reference compound]			> 541 pmol	100%	100%	protected
